{"source": "paper PMC12691611", "about": "“Aromatic residue Trp146 mediates dynamic interplay between type IVa pili and exopolysaccharide in social motility of Myxococcus xanthus” (mBio, 2025)", "key": {"[1]": {"system": "M. xanthus DK1622 cells", "parameters": "method as in PMID 12704238", "conditions": "DK1622 cells ref 15; cited from earlier work"}, "[2]": {"molecular_target": "T1, PilACt-W181A (Myxococcus xanthus, UniProt Q59589, W181A)", "T1 construct": "a truncated variant (PilACt) spanning residues 32–208; His tag; made in house; host or cells: E. coli BL21 (DE3)", "T1 sequence (Q59589 44-220 W181A)": "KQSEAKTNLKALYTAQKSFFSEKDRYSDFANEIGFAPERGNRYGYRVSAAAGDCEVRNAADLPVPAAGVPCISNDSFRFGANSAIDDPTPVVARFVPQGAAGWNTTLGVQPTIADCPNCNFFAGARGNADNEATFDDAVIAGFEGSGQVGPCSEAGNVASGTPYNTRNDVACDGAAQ", "experiment": "SPR, carbohydrates over immobilized PilACt-W181A", "format": "binding", "source_text": "(§1) To functionally validate the role of W146, a W146A substitution mutant (PilA-W146A) was generated through AlphaFold2-based structural modeling of PilA (Fig. 4A). Structural alignment confirmed the mutant retained a tertiary structure indistinguishable from wild-type PilA (WT PilA; Fig. 4B), indicating the W146A substitution caused no global structural perturbations. […] However, the mutation induced localized instability, manifested by premature GlcN dissociation (4 ns) and excessive ligand RMSD fluctuations (>6 nm; Fig. 4C and D; Movie S4). […] To quantify binding effects, a single-residue PilACt variant (PilACt-W146A) was analyzed for EPS/GlcN affinity. […] To assess broader aromatic residue contributions, four additional PilA aromatic residues (Y69, W181, F164, and F186) were individually substituted with alanine. The PilACt-F164A mutant underwent intracellular degradation, likely due to structural instability, precluding heterologous expression.\n(§2) The binding affinity of carbohydrates to PilACt and its mutants was determined by SPR measurements at 25°C using Biacore T200 (Cytiva, USA) in PBS buffer. […]\n(§3) Fig S11. […] The binding affinity of single-residue variants PilACt-Y69A, PilACt-W181A, and PilACt-F186A to S-EPS (A) and GlcN (B) was evaluated by SPR analysis. Representative sensorgram and calculated KD values are shown. […]"}, "[3]": {"experiment": "Zeta potential measurement", "format": "physicochemical", "protocol": "GlcN and PilACt were diluted in PBS buffer, and the solutions were adjusted to a suitable pH (6, 7.6, and 9) using either HCl or NaOH. The zeta (ζ) potential of GlcN (0.5 mg/mL) and PilACt (1 mg/mL) solutions was measured using UV-grade cuvettes with a Zetasizer NanoZS90 (Malvern Instruments, United Kingdom). For each measurement, 1 mL of the sample was injected into a folded capillary cell. All experiments were conducted in triplicate."}, "[4]": {"molecular_target": "T2, PilACt-W146A (Myxococcus xanthus, UniProt Q59589, W146A)", "T2 construct": "a truncated variant (PilACt) spanning residues 32–208; His tag; made in house; host or cells: E. coli BL21 (DE3)", "T2 sequence (Q59589 44-220 W146A)": "as the sequence (Q59589 44-220 W181A) above, with W103A, A138W counted along it", "experiment": "SPR, carbohydrates over immobilized PilACt-W146A", "format": "binding", "conditions": "25°C, PBS", "source_text": "as §1\nThe binding affinity of carbohydrates to PilACt and its mutants was determined by SPR measurements at 25°C using Biacore T200 (Cytiva, USA) in PBS buffer. The purified PilACt or its mutants (10 µg/mL in 10 mM sodium acetate, pH 4.5) were immobilized on the CM5 chips (Cytiva, USA) via amine coupling. Unreacted sites were blocked with 1.0 M ethanolamine-HCl (pH 8.5). Flow path 1 or path 3 was used as an activated blank control for subtraction. […]"}, "[5]": {"molecular_target": "T3, PilACt (Myxococcus xanthus, UniProt Q59589)", "T3 construct": "a truncated variant (PilACt) spanning residues 32–208; His tag; made in house; host or cells: E. coli BL21 (DE3)", "T3 sequence (Q59589 44-220)": "as the sequence (Q59589 44-220 W181A) above, with A138W counted along it", "experiment": "Isothermal titration calorimetry (ITC), carbohydrates titrated into PilACt", "format": "binding", "protocol": "(§4) ITC power compensation analyses ([50]) confirmed negligible enthalpy changes during titrations, ruling out nonspecific binding events (Fig. S3B and S4B). […] Given the presence of ManNAc in M. xanthus EPS, we further analyzed its deacetylated derivative, mannosamine (ManN).\nThe calorimetric data for the binding of PilACt and its mutants to carbohydrates were measured at 25°C using a MicroCal PEAQ-ITC system (Malvern Instruments, United Kingdom). The carbohydrates, PilACt, and its mutants were dissolved in the PBS buffer. A 300 µL aliquot of protein solution was placed in the sample cell, followed by 19 sequential 2 µL injections of carbohydrates from a syringe stock solution into the sample cell. The injection interval was 150 s, and the agitation speed was set at 750 rpm. A control titration, in which carbohydrates were injected into PBS buffer under the same conditions, was performed to measure the heat of mixing and dilutions, which was then subtracted from the titration results involving the protein. Raw data were imported into MicroCal PEAQ-ITC analysis software (Version 1.1.01262) and corrected by subtracting the equivalent dilution heats of control titration. Integration of the area under each, along with deduction of the heat of dilution, yielded a thermogram of the molecular interaction between carbohydrates and PilACt or its mutants."}, "[6]": {"conditions": "amine group of GlcN; no reference given; cited from earlier work"}, "[7]": {"molecular_target": "T4, PilACt-F186A (Myxococcus xanthus, UniProt Q59589, F186A)", "T4 construct": "a truncated variant (PilACt) spanning residues 32–208; His tag; made in house; host or cells: E. coli (BL21 (DE3) is named only for the other PilACt variants)", "T4 sequence (Q59589 44-220 F186A)": "as the sequence (Q59589 44-220 W181A) above, with A138W, F143A counted along it", "experiment": "SPR, carbohydrates over immobilized PilACt-F186A", "format": "binding", "source_text": "as §1, §2, §3"}, "[8]": {"molecular_target": "T5, PilACt (truncated PilA, residues 32–208) (Myxococcus xanthus, UniProt Q59589)", "T5 construct": "a truncated variant (PilACt) spanning residues 32–208; His tag; made in house; host or cells: E. coli BL21 (DE3)", "T5 sequence (Q59589 44-220)": "as the sequence (Q59589 44-220 W181A) above, with A138W counted along it", "experiment": "Surface plasmon resonance (SPR, Biacore T200), carbohydrates over immobilized PilACt", "format": "binding", "conditions": "for Kd: KD (SPR, PilACt)", "source_text": "We therefore employed surface plasmon resonance (SPR) on a Biacore system to quantitatively evaluate EPS-PilA binding ([48]), using immobilized PilACt as the ligand. […] Due to the insoluble nature of I-EPS and the risk of clogging the microfluidic channels, it was excluded from further SPR analyses.\nas §4\nThe binding affinity of carbohydrates to PilACt and its mutants was determined by SPR measurements at 25°C using Biacore T200 (Cytiva, USA) in PBS buffer. The purified PilACt or its mutants (10 µg/mL in 10 mM sodium acetate, pH 4.5) were immobilized on the CM5 chips (Cytiva, USA) via amine coupling. Unreacted sites were blocked with 1.0 M ethanolamine-HCl (pH 8.5). Flow path 1 or path 3 was used as an activated blank control for subtraction. In all interaction experiments, analytes were injected at a flow rate of 30 µL/min for 180 s, with gradient concentrations programmed from low to high. After injection, dissociation was allowed to occur with the buffer flow for 300 s to facilitate chip regeneration. The resulting curves were corrected and fitted to the steady-state model using Biacore evaluation software (version 3.0, Cytiva, USA) to determine the dissociation constant (KD) values."}, "[9]": {"molecular_target": "T6, PilACt-Y69A (Myxococcus xanthus, UniProt Q59589, Y69A)", "T6 construct": "a truncated variant (PilACt) spanning residues 32–208; His tag; made in house; host or cells: E. coli BL21 (DE3)", "T6 sequence (Q59589 44-220 Y69A)": "as the sequence (Q59589 44-220 W181A) above, with Y26A, A138W counted along it", "experiment": "SPR, carbohydrates over immobilized PilACt-Y69A", "format": "binding", "source_text": "as §1, §2, §3"}}, "note": "“Also recorded” adds a separate entry of the source."}
{"smiles": "N[C@H]1C(O)O[C@H](CO)[C@@H](O)[C@@H]1O", "note": "(stereo partly drawn) [GlcN, glucosamine]", "values": [{"measurement": "piliation phenotype (surface pili)", "setting": "[1]", "value": "hyperpiliation"}, {"measurement": "binding affinity relative to WT PilACt (SPR)", "setting": "[2]", "value": "indistinguishable from WT"}, {"measurement": "zeta potential", "setting": "[3]; pH 6, PBS", "value": "+2.43 mV"}, {"measurement": "zeta potential", "setting": "[3]; pH 7.6, PBS", "value": 1.09, "unit": "mV"}, {"measurement": "binding to PilACt-W146A by SPR", "setting": "[4]", "value": "undetectable; also recorded: No binding"}, {"measurement": "Kd", "setting": "[5]", "value": 300, "unit": "µM"}, {"measurement": "stoichiometry n (ITC)", "setting": "[5]; 25°C, PBS, pH 7.6", "value": 1.47}, {"measurement": "pKa", "setting": "[6]", "value": "~ 7.58"}, {"measurement": "binding affinity relative to WT PilACt (SPR)", "setting": "[7]", "value": "indistinguishable from WT"}, {"measurement": "Kd", "setting": "[8]; pH 9", "value": 87, "unit": "µM"}, {"measurement": "Kd", "setting": "[8]; steady-state fit, 25°C, PBS buffer, pH 7.6", "value": 203, "unit": "µM"}, {"measurement": "binding affinity relative to WT PilACt (SPR)", "setting": "[9]", "value": "indistinguishable from WT"}]}
{"smiles": "CC(=O)N[C@@H]1[C@@H](O)[C@H](O)[C@@H](CO)O[C@H]1O", "note": "[GlcNAc, N-acetyl-glucosamine]", "values": [{"measurement": "piliation phenotype (surface pili)", "setting": "[1]", "value": "hyperpiliation"}, {"measurement": "binding to PilACt by ITC", "setting": "[5]; 25°C, PBS", "value": "undetectable"}, {"measurement": "binding to PilACt by SPR", "setting": "[8]; tested concentrations 31.25–1,000 µM", "value": "undetectable"}]}
